According to patent US7153873B2, “Salts of bicyclic, N-acylated imidazo-3-amines and imidazo-5-amines” (Gruenenthal GmbH, priority 2000, dated 2006):

These compounds were tested against T1, μ-opiate receptor (Rattus norvegicus, UniProt P33535) (assay: μ-Opiate receptor binding investigations on rat brain membrane homogenates with tritiated naloxone). Conditions: 10 μM compound; rat brain membrane homogenate (male Wistar rats); 1 nmol/l tritiated naloxone as radioactive ligand; read-out: μ-affinity % inhibition 10 μM.
T1 construct: homogenate of rat brain without cerebellum, pons and medulla oblongata of male Wistar rats; from tissue; host or cells: rat brain (without cerebellum, pons and medulla oblongata), male Wistar rats, membrane homogenate
T1 sequence (P33535 whole entry): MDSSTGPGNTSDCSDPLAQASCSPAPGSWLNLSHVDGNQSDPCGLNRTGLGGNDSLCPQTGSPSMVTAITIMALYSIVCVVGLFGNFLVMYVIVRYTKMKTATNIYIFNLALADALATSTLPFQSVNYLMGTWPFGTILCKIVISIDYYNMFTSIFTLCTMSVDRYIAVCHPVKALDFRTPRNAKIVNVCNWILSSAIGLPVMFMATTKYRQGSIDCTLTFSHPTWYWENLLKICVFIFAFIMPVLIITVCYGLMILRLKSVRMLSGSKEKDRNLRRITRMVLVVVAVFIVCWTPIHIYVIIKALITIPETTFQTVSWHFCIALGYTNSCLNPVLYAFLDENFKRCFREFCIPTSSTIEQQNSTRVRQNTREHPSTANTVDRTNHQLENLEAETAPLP
Procedure: μ-Opiate Receptor Binding Investigations
Investigations to determine the affinity of the compounds of Formula I according to the invention for the μ-opiate receptor were carried out on brain membrane homogenates (homogenate of rat brain without cerebellum, pons and medulla oblongata of male Wistar rats).
For this purpose, the respective freshly prepared rat brain was homogenized in 50 mmol/l tris-HCl (pH 7.4) with ice cooling and was centrifuged for 10 minutes at 5,000 g and 4° C. After decanting and rejection of the supernatant, retrieval and homogenisation of the membrane sediment in 50 mmol/l tris-HCl (pH 7.4), the homogenate was then centrifuged for 20 minutes at 20,000 g and 4° C. This washing stage was repeated several times. The supernatant was then decanted and the membrane sediment homogenized in cold 50 mmol/l tris-HCl, 20% glycerol (w/v), 0.01% Bactitracin (w/v) (pH 7.4) and frozen in aliquots until testing. To test receptor binding, the aliquots were thawed and diluted 1:10 with the binding test buffer.
In the binding test, a 50 mmol/l tris-HCl, 5 mmol/l MgCl (pH 7.4) was used as buffer and 1 nmol/l tritiated naloxone as radioactive ligand.
`CC(=O)[n+]1c(-c2ccccc2)c(NC2CCCCC2)n2c3ccccc3ccc21` [Example 5, 3-acetyl-1-cyclohexylamino-2-phenyl-imidazo[1,2-a]-quinolin-3-ium chloride] gave an inhibition at 10 µM of 79%.
Work on `CC(=O)[n+]1c(-c2ccccc2)c(NC2CCCCC2)n2cccnc21` [Example 6, 1-acetyl-3-cyclohexylamino-2-phenyl-imidazo[1,2-a]-pyrimidin-1-ium chloride] yielded an inhibition at 10 µM of 53%.
Compound `CC(=O)[n+]1c(C)c(NC(C)(C)C)n2cccc(OCc3ccccc3)c21` [Example 8, 1-acetyl-8-benzyloxy-3-tert-butylamino-2-methyl-imidazo[1,2-a]pyridin-1-ium chloride] has an inhibition at 10 µM of 98%.
Compound `CC(=O)[n+]1c(-c2ccccc2)c(NC(C)(C)C)n2ccsc21` [Example 4, 7-acetyl-5-tert-butylamino-6-phenyl-imidazo[2,1-b]-thiazol-7-ium chloride] has an inhibition at 10 µM of 90%.
`CC(=O)[n+]1c(C)c(NC2CCCCC2)n2cccc(OCc3ccccc3)c21` [Example 7, 1-acetyl-8-benzyloxy-3-cyclohexylamino-2-methyl-imidazo[1,2-a]pyridin-1-ium chloride] showed an inhibition at 10 µM of 91%.
